Assay [1] can be described thus: Antioxidant activity assessed as inhibition of copper-induced human LDL oxidation. The format is functional.
Assay [2] in a line: Antioxidant activity assessed as inhibition of endothelial cell-induced human LDL oxidation. The format is functional, cell-based.

Take `O=c1cc(-c2ccc(O)cc2)oc2cc(O)ccc12`: the half-maximal inhibitory concentration (IC50) in assay [1] was > 100000 nM.
Consider `CC(C)(C)c1cc(-c2cc(=O)c3ccc(OCC(O)CO)cc3o2)cc(C(C)(C)C)c1O` (stereo not drawn), for which, in assay [1], the IC50 was determined as 100 nM.
On the same count and under the same terms, the same measure for `COc1ccc2c(=O)cc(-c3cc(C(C)(C)C)c(O)c(C(C)(C)C)c3)oc2c1`: 1000 nM; for `COc1ccc2c(=O)cc(-c3cc(C(C)(C)C)c(OC)c(C(C)(C)C)c3)oc2c1`: > 100000 nM.
Still for that read-out and setting: as for `CC(C)(C)c1cc(-c2cc(=O)c3ccc(OCC(=O)O)cc3o2)cc(C(C)(C)C)c1O` [listing 1 of 2 here], the figure is 100 nM.
On to `CCCCCOC(=O)COc1ccc2c(=O)cc(-c3cc(C(C)(C)C)c(O)c(C(C)(C)C)c3)oc2c1`, for which the IC50 in assay [1] was determined as 5000 nM.
In the case of `CC(C)(C)c1cc(-c2cc(=O)c3ccc(OCC(=O)N4CCCCC4)cc3o2)cc(C(C)(C)C)c1O`, in assay [1], the IC50 worked out at 3000 nM.
Still for that read-out and setting: as for `CC(C)(C)c1cc(-c2cc(=O)c3ccc(OCc4ccc5ccccc5n4)cc3o2)cc(C(C)(C)C)c1O`, the figure is 3000 nM.
Still for that read-out and setting: the same measure for `CN(C)CCCOc1ccc2c(=O)cc(-c3cc(C(C)(C)C)c(O)c(C(C)(C)C)c3)oc2c1`: 700 nM.
Same read-out and setting: as for `CCOC(=O)CCCCOc1ccc2c(=O)cc(-c3cc(C(C)(C)C)c(O)c(C(C)(C)C)c3)oc2c1`, the figure is 3000 nM; as for `CC(C)(C)c1cc(-c2cc(=O)c3ccc(OCCCS(=O)(=O)O)cc3o2)cc(C(C)(C)C)c1O`, 500 nM.
As to `CC(C)(C)c1cc(-c2cc(=O)c3ccccc3o2)cc(C(C)(C)C)c1O`, the IC50 stood at 3000 nM in assay [1] and 2500 nM in assay [2].
For the compound `CC(C)(C)c1cc(-c2cc(=O)c3ccc(OCc4ccc(Cl)cc4)cc3o2)cc(C(C)(C)C)c1O`, in assay [1], the IC50 stood at 7000 nM.
Take `CCOC(=O)C(C)(C)Oc1ccc2c(=O)cc(-c3cc(C(C)(C)C)c(O)c(C(C)(C)C)c3)oc2c1`: the IC50 stood at 3000 nM in assay [1] and 500 nM in assay [2].
For `CCCCCCOc1ccc2c(=O)cc(-c3cc(C(C)(C)C)c(O)c(C(C)(C)C)c3)oc2c1`, in that order: 5000 nM and 50000 nM.
For `CC(C)(C)c1cc(C(=O)Oc2ccc3c(=O)cc(-c4cc(C(C)(C)C)c(O)c(C(C)(C)C)c4)oc3c2)cc(C(C)(C)C)c1O`, in that order: 30000 nM and 70000 nM.
As to `CC(C)(C)c1cc(-c2cc(=O)c3ccc(OCC(=O)N4CCN(Cc5ccccc5)CC4)cc3o2)cc(C(C)(C)C)c1O`, in assay [1], the IC50 was determined as 3000 nM.
On to `CC(C)(C)c1cc(-c2cc(=O)c3ccc(OCC(=O)O)cc3o2)cc(C(C)(C)C)c1O` [listing 2 of 2 here], for which the IC50 stood at 3000 nM in assay [1] and 500 nM in assay [2].
On to `CCN(CC)C(=O)COc1ccc2c(=O)cc(-c3cc(C(C)(C)C)c(O)c(C(C)(C)C)c3)oc2c1`, for which the IC50 in assay [1] amounted to 3000 nM.
On the same count and under the same terms, as for `CN(C)CCOc1ccc2c(=O)cc(-c3cc(C(C)(C)C)c(O)c(C(C)(C)C)c3)oc2c1`, the figure is 700 nM; as for `CC(C)(C)c1cc(-c2cc(=O)c3ccc(OCCO)cc3o2)cc(C(C)(C)C)c1O`, 3000 nM.
As for `CCOC(=O)COc1ccc2c(=O)cc(-c3cc(C(C)(C)C)c(O)c(C(C)(C)C)c3)oc2c1`, the IC50 worked out at 3000 nM in assay [1] and 800 nM in assay [2].
For `CC(C)(C)c1cc(-c2cc(=O)c3ccc(OCCN4CCOCC4)cc3o2)cc(C(C)(C)C)c1O` the same measures were 800 nM and 800 nM.
For `CC(C)(C)c1cc(-c2cc(=O)c3ccc(O)cc3o2)cc(C(C)(C)C)c1O`, in that order: 1000 nM and 2000 nM.
For `O=c1cc(-c2ccc(O)cc2)oc2cc(O)cc(O)c12` [APIGENIN], the IC50 in assay [1] is > 100000 nM.
As for `Cc1cc(C(C)(C)C)c(O)c(C(C)(C)C)c1` [BUTYLATED HYDROXYTOLUENE], the IC50 in assay [1] was 3000 nM.
Regarding `CC(C)(Sc1cc(C(C)(C)C)c(O)c(C(C)(C)C)c1)Sc1cc(C(C)(C)C)c(O)c(C(C)(C)C)c1` [PROBUCOL], the IC50 in assay [1] worked out at 3000 nM; in assay [2], 4000 nM.
For VITAMIN E, in that order: > 100000 nM and 4000 nM.

Values taken from ChEMBL document CHEMBL1150096, “Synthesis and evaluation of 3',5'-di-tert-butyl-4'-hydroxyflavones as potential inhibitors of low density lipoprotein (LDL) oxidation” (J Nat Prod, 1995).
